Data published in patent publication US10660336B2 (priority 2014, dated 2020).
Where two headings read alike, the source gives them in different places.

Columns and labels:
[1] = test system: tobacco mosaic virus; assay: Half leaf method, anti-viral activity against tobacco mosaic virus (local lesion count); format: in vivo; conditions: concentration of 5 ppm or above; Nicotiana tabacum cv. Xanthi nc half leaf; 3 days after inoculation
Protocol: A half leaf method was performed to determine an anti-viral activity against tobacco mosaic virus, which was provided from the plant virus genebank (PVGB), Seoul women's university, of the compounds which was determined to have the anti-viral activity against the pepper mottle virus in Example 3. The half leaf method utilizes features of producing black spots due to local lesions around the infected part by tobacco mosaic virus in Nicotiana tabacum cv. Xanthi nc which is a local lesion host. Top 3 leaves and 4 leaves of 7-8 normal leaves of the local lesion host were taken and carborundum was evenly sprayed throughout the leaves. A compound 1 (Trichodermin) sample at test concentrations dissolved in DMSO and the tobacco mosaic virus solution were mixed. Right half leaf of the leaf of the Nicotiana tabacum cv. Xanthi nc was inoculated with this mixture and the other left half leaf was inoculated with tobacco mosaic virus solution (control) using cotton swabs. After petiole of the leaf of the Nicotiana tabacum cv. […] After 3 days of inoculation, the number of local lesions was counted and 100-400 of lesions of […] control half leaf was only applied. Activity rate using the number of lesions was calculated by the following equation. […]

[2] = test system: pepper mottle virus (PepMoV); parameters: species or system Capsicum anuum L.; conditions: in vivo
[3] = test system: pepper mottle virus (PepMoV); parameters: species or system Nicotiana benthamiana; conditions: in vivo

SMILES: CC(=O)O[C@@H]1C[C@H]2O[C@@H]3C=C(C)CC[C@]3(C)[C@]1(C)[C@]21CO1 [Trichodermin]
- anti-viral activity against the tobacco mosaic virus (control rate from number of local lesions) [1]: ≥ 97%
- spreading rate of the pepper mottle virus (green fluorescent protein in upper leaves under UV, viral RNA and coat protein) [2]: inhibits spreading rate of the pepper mottle virus
- spreading rate of the pepper mottle virus (green fluorescent protein in upper leaves under UV, viral RNA and coat protein) [3]: inhibits spreading rate of the pepper mottle virus
